This is an account of results in BindingDB's records for doi:10.1016/j.ejmech.2017.02.022 (Svkm'S Dr. Bhanuben Nanavati College of Pharmacy, 2017).

The structures appear in SMILES notation.

A short description of this data set: Inhibition of ABCB1 in human MCF7/ADR cells assessed as potentiation of vinblastine-induced cytotoxicity by measuring vinblastine IC50 at IC10 after 7 days by SRB assay. Background: In SRB staining, fixed cells bind dye roughly in proportion to their protein.
For `Cc1cc(C)c2c(c1)c(=O)c1ccccc1n2CCCN1CCN(CCO)CC1`, the IC50 – broadly, the concentration at which inhibition is half-maximal – came to 8 nM. The figure for `Cc1cc(C)c2c(c1)c(=O)c1ccccc1n2CCCCN1CCN(CCO)CC1` is 1.3 nM. Then `Cc1cc(C)c2c(c1)c(=O)c1ccccc1n2CCCN(CCO)CCO`, with 11 nM; and `Cc1cc(C)c2c(c1)c(=O)c1ccccc1n2CCCCN1CCOCC1`, with 4 nM.

As for `Cc1cc(C)c2c(c1)c(=O)c1ccccc1n2CCCCN1CCCCC1`, the half-inhibitory concentration (IC50) turned out to be 5 nM. Regarding `Cc1cc(C)c2[nH]c3ccccc3c(=O)c2c1`, the IC50 is 27 nM. Then `CCN(CC)CCCCn1c2ccccc2c(=O)c2cc(C)cc(C)c21`, with 4.1 nM. `Cc1cc(C)c2c(c1)c(=O)c1ccccc1n2CCCCN(CCO)CCO`: the IC50 stood at 3.1 nM. The figure for `Cc1cc(C)c2c(c1)c(=O)c1ccccc1n2CCCCN1CCN(C)CC1` is 10 nM.

On to `Cc1cc(C)c2c(c1)c(=O)c1ccccc1n2CCCN1CCN(C)CC1`, for which the half-maximal inhibitory concentration (IC50) was 17 nM. Then `CCN(CC)CCCn1c2ccccc2c(=O)c2cc(C)cc(C)c21`, with 14 nM. Then `Cc1cc(C)c2c(c1)c(=O)c1ccccc1n2CCCN1CCCCC1`, with 17 nM; and `Cc1cc(C)c2c(c1)c(=O)c1ccccc1n2CCCN1CCOCC1`, with 20 nM.
